Measured values: paper PMC6259611, “Comparative Anti-Infectious Bronchitis Virus (IBV) Activity of (-)-Pinene: Effect on Nucleocapsid (N) Protein” (Molecules, 2011)
Values joined by “and” are separate entries in the source; they are usually repeats but may differ in a detail not shown here. Equal values may be shown once.

Tests used:
[1] = test system: IBV (Gray strain)
Description: The compound was aspirated and cells were washed immediately before the IBV inoculum was added. […] For analyzing the anti-IBV inhibition during the adsorption period, the same amount of IBV was mixed with the drug and added to the cells immediately. After 1h of adsorption at 37 °C, the inoculum was removed and DMEM supplemented with 2% FCS were added to the cells. […] Each assay was run in eight replicates. Ribavirin was used as a positive control.

[2] = test system: IBV (Gray strain); experiment: Anti-IBV activity (inhibition of virus replication, MTT method); format: cell-based, Infectious bronchitis virus; conditions: Avian coronavirus, Vero, 72 h
Description: The IBV Gray strain was purchased from National Control Institute of Veterinatory Bioproducts and Pharmaceuticals (Beijing, P. R. China). Virus was routinely grown on Vero-E6 cells. IBV-Gray stock cultures were prepared from supernatants of infected cells and stored at −80 °C.
Inhibition of virus replication was measured by MTT method. Serial dilution of the treated virus was adsorbed to the cells for 1 h at 37 °C. The residual inoculum was discared and infected cells were added with DMEM containing 2% FCS. Each assay was performed in eight replicates. After incubation for 72 h at 37 °C, the cultures were measured by MTT method as described above.

[3] = in vitro; conditions: African green monkey
Description: (§1) Vero-E6 (African green monkey kidney cells) was purchased from Harbin Veterinary Research Institute (Harbin, P. R. China). The cells were grown in monolayer culture with Dulbecco’s modified Eagle’s medium (DMEM) supplemented with 10% fetal calf serum (FCS), 100 U/mL penicillin and 100 μg/mL streptomycin. The monolayers were removed from their plastic surfaces and serially passaged whenever they became confluent. Cells were plated out onto 96-well culture plates for cytotoxicity and anti-IBV assays, and propagated at 37 °C in an atmosphere of 5 % CO2.
(§2) The supernatants were discarded, washed with PBS twice and MTT reagent (5 mg/mL in PBS) was added to each well, after incubated at 37 °C for 4 h, remove the supernatants, then 200 μL DMSO was added and incubated at 37 °C for another 30 min. After that the plates were read on an ELISA reader (Thermo Molecular Devices Co., Union City, USA) at 570/630 nm. The mean OD of the cell control wells was assigned a value of 100%. The maximal non-toxic concentration (TD0) and 50% cytotoxic concentration (CC50) were calculated by linear regression analysis of the dose-response curves generated from the data.

[4] = test system: Vero-E6 cells; experiment: in vitro; conditions: Vero cells, 72 h, MTT
Description: as §1, §2

SMILES	inhibition [1]	IC50 [2]	CC50 at 72 h [3]	TD0 (maximum noncytotoxic concentration) [4]
NC(=O)c1ncn([C@@H]2O[C@H](CO)[C@@H](O)[C@H]2O)n1 [Ribavirin, ribavirin, reference compound]	90.2 ± 2.8%	118 ± 20 µM	> 1000 µM	–
C=C1CCC2CC1C2(C)C (stereo not drawn) [(-)-β-pinene]	81% and 55.4%	1320 ± 110 µM	> 10000 µM	6.09 ± 0.31 mM
CC1=CCC2CC1C2(C)C (stereo not drawn) [(-)-α-pinene]	87% and 67.6%	980 ± 250 µM	> 10000 µM	–
